# Measurements reported in ChEMBL document CHEMBL5385853, “Design, synthesis, and biological evaluation of novel quinoline derivatives as small molecule mutant EGFR inhibitors targeting resistance in NSCLC: In vitro screening and ADME predictions” (Eur J Med Chem, 2023).
# pIC50: −log10 of the molar value. Calls of active or inactive are those of the source. The calls are words filed in the database; no cut-off is given here.
# Experiments:
# [1] = target: Epidermal growth factor receptor (Homo sapiens, UniProt P00533); experiment: Inhibition of EGFR (unknown origin)
# NCI-H1975 = experiment: Anticancer activity against human NCI-H1975 cells harboring EGFR L858R/T790M mutant assessed as reduction in cell viability measured after 72 hrs by MTT assay; format: functional, cell-based; settings: NCI-H1975, 72 h
# HCC827 = experiment: Anticancer activity against human HCC827 cells harboring EGFR E746_A750 del mutant assessed as reduction in cell viability measured after 72 hrs by MTT assay; format: functional, cell-based; settings: HCC827, 72 h
# A549 [2] = experiment: Anticancer activity against human A549 cells assessed as reduction in cell viability measured after 72 hrs by MTT assay; format: functional, cell-based; settings: A549, 72 h
# A549 [3] = experiment: Anticancer activity against human A549 cells overexpressing wild type EGFR assessed as reduction in cell viability measured after 72 hrs by MTT assay; format: functional, cell-based; settings: A549, 72 h
# [4] = Cytotoxicity against human BEAS-2B cells assessed as reduction in cell viability measured after 72 hrs by MTT assay; format: toxicity, cell-based
# [5] = target: Epidermal growth factor receptor (Homo sapiens, UniProt P00533, L858R/T790M); experiment: Inhibition of EGFR L858R/T790M mutant (unknown origin) using poly (Glu,Tyr) as substrate incubated for 40 mins in presence of ATP by Kinase-Glo luminescent analysis
# [6] = test system: Epidermal growth factor receptor (Homo sapiens), P00533 [UNDEFINED MUTATION]; experiment: Inhibition of EGFR E746_A750 del mutant in human HCC827 cells assessed as inhibition of Akt phosphorylation at 0.01 to 1 uM by western blot analysis; format: cell-based; settings: dose 0.01-1 µM
# Chain of Epidermal growth factor receptor (Homo sapiens), P00533 [UNDEFINED MUTATION] (P00533 whole entry, looked up, stated change not applied): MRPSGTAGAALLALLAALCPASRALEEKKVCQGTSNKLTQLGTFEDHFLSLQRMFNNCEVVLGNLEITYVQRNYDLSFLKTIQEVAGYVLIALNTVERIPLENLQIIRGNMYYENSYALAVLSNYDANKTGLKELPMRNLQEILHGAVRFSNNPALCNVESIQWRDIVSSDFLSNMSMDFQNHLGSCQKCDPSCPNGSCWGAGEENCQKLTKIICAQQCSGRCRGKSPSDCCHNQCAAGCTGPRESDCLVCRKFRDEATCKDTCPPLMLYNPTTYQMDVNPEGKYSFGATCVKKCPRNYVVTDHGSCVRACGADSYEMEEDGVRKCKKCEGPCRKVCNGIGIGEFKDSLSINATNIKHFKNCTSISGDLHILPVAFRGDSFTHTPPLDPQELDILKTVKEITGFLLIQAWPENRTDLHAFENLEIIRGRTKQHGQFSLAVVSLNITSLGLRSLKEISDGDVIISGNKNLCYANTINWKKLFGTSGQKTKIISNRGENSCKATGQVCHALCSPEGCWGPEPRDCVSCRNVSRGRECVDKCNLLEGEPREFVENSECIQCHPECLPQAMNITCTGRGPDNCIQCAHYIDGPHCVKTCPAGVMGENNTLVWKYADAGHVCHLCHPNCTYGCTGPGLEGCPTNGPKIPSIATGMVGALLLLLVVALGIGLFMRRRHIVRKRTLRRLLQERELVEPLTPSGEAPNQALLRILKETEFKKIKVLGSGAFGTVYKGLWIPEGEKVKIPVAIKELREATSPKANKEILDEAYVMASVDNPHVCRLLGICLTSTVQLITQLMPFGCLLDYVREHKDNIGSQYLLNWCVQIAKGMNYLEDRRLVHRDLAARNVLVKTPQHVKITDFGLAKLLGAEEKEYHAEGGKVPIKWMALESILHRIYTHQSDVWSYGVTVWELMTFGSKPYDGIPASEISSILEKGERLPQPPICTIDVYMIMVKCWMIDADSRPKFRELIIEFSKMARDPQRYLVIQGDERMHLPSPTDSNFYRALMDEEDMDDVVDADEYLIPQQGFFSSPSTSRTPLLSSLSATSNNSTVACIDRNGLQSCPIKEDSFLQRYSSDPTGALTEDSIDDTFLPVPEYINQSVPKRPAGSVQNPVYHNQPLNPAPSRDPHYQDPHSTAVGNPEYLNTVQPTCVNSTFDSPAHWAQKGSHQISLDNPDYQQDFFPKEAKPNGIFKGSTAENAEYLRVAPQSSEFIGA
# Chain of Epidermal growth factor receptor (Homo sapiens, UniProt P00533, L858R/T790M) (P00533 25-1210 T790M/L858R limits assumed): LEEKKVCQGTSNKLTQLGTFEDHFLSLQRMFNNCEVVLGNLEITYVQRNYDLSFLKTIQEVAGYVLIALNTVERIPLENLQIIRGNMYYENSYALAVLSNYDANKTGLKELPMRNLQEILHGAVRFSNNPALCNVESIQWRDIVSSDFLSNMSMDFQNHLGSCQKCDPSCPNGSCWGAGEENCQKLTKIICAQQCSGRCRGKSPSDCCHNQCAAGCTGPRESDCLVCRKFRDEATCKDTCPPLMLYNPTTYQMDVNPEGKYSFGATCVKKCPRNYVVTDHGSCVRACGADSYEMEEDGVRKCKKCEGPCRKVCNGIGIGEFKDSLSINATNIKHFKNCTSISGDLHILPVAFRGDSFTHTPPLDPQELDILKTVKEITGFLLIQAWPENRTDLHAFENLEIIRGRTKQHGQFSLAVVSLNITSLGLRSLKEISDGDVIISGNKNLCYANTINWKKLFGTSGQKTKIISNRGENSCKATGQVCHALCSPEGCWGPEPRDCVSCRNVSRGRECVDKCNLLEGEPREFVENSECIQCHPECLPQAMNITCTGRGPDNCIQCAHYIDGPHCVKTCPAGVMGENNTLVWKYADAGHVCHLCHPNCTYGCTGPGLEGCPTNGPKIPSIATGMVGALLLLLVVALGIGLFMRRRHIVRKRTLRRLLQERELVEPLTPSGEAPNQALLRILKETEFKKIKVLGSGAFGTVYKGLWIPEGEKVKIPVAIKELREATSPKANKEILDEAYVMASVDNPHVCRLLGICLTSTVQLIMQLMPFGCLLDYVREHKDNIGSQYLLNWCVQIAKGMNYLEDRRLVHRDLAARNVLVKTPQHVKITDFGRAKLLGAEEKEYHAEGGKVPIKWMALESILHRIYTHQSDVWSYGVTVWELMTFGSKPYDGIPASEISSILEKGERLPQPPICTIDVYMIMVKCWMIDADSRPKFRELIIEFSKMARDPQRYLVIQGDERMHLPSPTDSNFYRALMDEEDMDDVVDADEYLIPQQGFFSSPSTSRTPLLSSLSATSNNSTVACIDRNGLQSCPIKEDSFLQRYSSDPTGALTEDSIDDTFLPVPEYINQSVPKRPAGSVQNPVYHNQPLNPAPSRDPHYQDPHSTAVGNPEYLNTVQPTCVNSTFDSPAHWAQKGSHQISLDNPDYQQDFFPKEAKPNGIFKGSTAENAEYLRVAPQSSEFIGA
# Chain of Epidermal growth factor receptor (Homo sapiens, UniProt P00533) (P00533 whole entry): as the sequence (P00533 whole entry, looked up, stated change not applied) above
SMILES,pIC50 [1],pIC50 (NCI-H1975),pIC50 (HCC827),pIC50 (A549 [2]),pIC50 (A549 [3]),IC50 at 72 h [4],pIC50 [5],inhibition [6]
N#Cc1c(-c2ccc3ncc(C(N)=O)c(Nc4cccc(Br)c4)c3c2)csc1N,6.31,–,–,–,–,–,–,–
CCCc1cc(C(=O)Nc2ccccc2N2CCN(c3c(C(=O)OCC)c(-n4ccnc4)nc4ccc(Br)cc34)CC2)n(C)n1,–,5.03,6.06,4.94,5.09,–,–,–
CCOC(=O)c1c(-n2ccnc2)nc2ccc(Br)cc2c1N1CCN(c2ccccc2NC(=O)C2CC(=O)C2)CC1,–,6.96,7.00,4.96,5.10,–,–,–
CCOC(=O)c1c(-n2ccnc2)nc2ccc(Br)cc2c1N1CCN(c2ccccc2NC(=O)c2cc(F)ccc2Br)CC1,–,5.57,6.74,5.15,5.32,–,–,–
CCOC(=O)c1c(-n2ccnc2)nc2ccc(Br)cc2c1N1CCN(c2ccccc2NS(=O)(=O)c2ccc(F)c(F)c2)CC1,–,6.11,7.00,5.51,5.96,45.8 µM,6.80,–
COc1cc2ncc(C#N)c(Nc3cccc(Br)c3)c2cc1OC,8.12,–,–,–,–,–,–,–
CCOC(=O)c1c(-n2ccnc2)nc2ccc(Br)cc2c1N1CCN(c2ccccc2NS(=O)(=O)c2ccc(C(C)(C)C)cc2)CC1,–,4.93,6.02,4.82,4.96,–,–,–
CCOC(=O)c1c(-n2ccnc2)nc2ccc(Br)cc2c1N1CCNCC1,–,4.82,5.61,4.79,4.94,–,–,–
CCOC(=O)c1c(-n2ccnc2)nc2ccc(Br)cc2c1N1CCN(C(=O)OC(C)(C)C)CC1,–,4.80,5.68,4.85,4.92,–,–,–
CCOC(=O)c1c(-n2ccnc2)nc2ccc(Br)cc2c1N1CCN(c2ccccc2NS(=O)(=O)c2ccc(F)cc2)CC1,–,6.09,7.21,5.37,5.73,86.5 µM,6.82,–
CCOC(=O)c1c(-n2ccnc2)nc2ccc(Br)cc2c1N1CCN(c2ccccc2NS(=O)(=O)c2ccc(I)cc2)CC1,–,5.54,6.54,5.04,5.25,–,–,–
CCOC(=O)c1c(-n2ccnc2)nc2ccc(Br)cc2c1N1CCN(c2ccccc2[N+](=O)[O-])CC1,–,5.35,6.55,5.00,5.22,–,–,–
CCOC(=O)c1c(-n2ccnc2)nc2ccc(Br)cc2c1N1CCN(c2ccccc2NS(=O)(=O)c2ccc(S(C)(=O)=O)cc2)CC1,–,4.96,6.05,4.84,4.99,–,–,–
CCOC(=O)c1c(-n2ccnc2)nc2ccc(Br)cc2c1N1CCN(c2ccccc2NS(=O)(=O)c2ccccc2F)CC1,–,6.07,7.30,5.31,5.62,–,6.84,inactive
